Experimental findings from patent US7375109B2, “Glycine-substituted thieno[2,3-d]pyrimidines with combined LH and FSH agonistic activity” (N.V. Organon, priority 2001, dated 2008) are described below.

SMILES strings stand for the structures.

The target in assay [1] is T1, human LH receptor (Homo sapiens, UniProt P22888).
T1 construct: expressed in transfected cells; host or cells: Chinese Hamster Ovary (CHO) cells, stably transfected; cotransfected with CRE-luciferase reporter
Nature of the assay: CHO-LH in vitro bioactivity (CRE-luciferase reporter). The class given is cell-based. As to conditions: CHO cells stably transfected with human LH receptor. Here is the method:
(§1) It has been shown that compounds of the above mentioned formula I show agonistic LH and FSH activity. […] Typically the FSH activity ranges from an activity of about 0.1% of the LH agonist stimulation to about 10% of the LH agonist stimulation.
(§2) LH agonistic activity of compounds were tested in Chinese Hamster Ovary (CHO) cells stably transfected with the human LH receptor and cotransfected with a cAMP responsive element (CRE)/promotor directing the expression of a firefly luciferase reporter gene. Binding of ligand to the Gs-coupled LH receptor will result in an increase of cAMP, which in turn will induce an increased transactivation of the luciferase reporter construct. The luciferase signal was quantified using a luminescence counter. For test compounds, EC50 values (concentration of test compound causing half-maximal (50%) stimulation) were calculated. For that purpose the software program GraphPad PRISM, version 3.0 (GraphPad software Inc., San Diego) was used.
Background: Reporter assays use an easily measured gene product as a stand-in for the process of interest.

Assay [2] concerns the target T2, human FSH receptor (Homo sapiens, UniProt P23945).
T2 construct: expressed in transfected cells; host or cells: CHO cells transfected with human FSH receptor and CRE-luciferase reporter
T2 sequence (P23945 18-695): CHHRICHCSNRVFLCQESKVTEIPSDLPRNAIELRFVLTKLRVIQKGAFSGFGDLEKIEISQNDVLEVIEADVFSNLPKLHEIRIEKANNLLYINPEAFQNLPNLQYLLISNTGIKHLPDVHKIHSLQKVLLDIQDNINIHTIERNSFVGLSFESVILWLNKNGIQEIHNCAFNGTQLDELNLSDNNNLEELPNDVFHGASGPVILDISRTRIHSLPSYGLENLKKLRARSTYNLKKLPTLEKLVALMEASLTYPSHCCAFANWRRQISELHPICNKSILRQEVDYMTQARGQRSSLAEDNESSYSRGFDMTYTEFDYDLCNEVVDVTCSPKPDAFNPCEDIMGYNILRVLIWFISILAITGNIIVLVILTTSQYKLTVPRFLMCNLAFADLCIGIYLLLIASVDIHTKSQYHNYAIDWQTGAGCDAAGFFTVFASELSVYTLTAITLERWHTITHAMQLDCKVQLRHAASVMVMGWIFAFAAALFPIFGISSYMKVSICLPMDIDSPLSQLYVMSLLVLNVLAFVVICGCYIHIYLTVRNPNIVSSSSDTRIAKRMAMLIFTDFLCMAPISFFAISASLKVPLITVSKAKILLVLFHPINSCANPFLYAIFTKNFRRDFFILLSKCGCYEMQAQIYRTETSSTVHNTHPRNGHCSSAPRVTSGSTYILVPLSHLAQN
Description: CHO-FSH in vitro bioactivity (CRE-luciferase reporter). To be noted: CHO cells transfected with human FSH receptor and luciferase reporter gene. The assay is classed as cell-based. As to the method:
as §1, §2
In a similar way FSH agonistic activity of compounds were tested in CHO cells transfected with the luciferase reporter gene and the human FSH receptor.

The EC50 is the midpoint of the concentration-response curve. Lower therefore signals higher potency in that assay.

T1 sequence (P22888 27-699): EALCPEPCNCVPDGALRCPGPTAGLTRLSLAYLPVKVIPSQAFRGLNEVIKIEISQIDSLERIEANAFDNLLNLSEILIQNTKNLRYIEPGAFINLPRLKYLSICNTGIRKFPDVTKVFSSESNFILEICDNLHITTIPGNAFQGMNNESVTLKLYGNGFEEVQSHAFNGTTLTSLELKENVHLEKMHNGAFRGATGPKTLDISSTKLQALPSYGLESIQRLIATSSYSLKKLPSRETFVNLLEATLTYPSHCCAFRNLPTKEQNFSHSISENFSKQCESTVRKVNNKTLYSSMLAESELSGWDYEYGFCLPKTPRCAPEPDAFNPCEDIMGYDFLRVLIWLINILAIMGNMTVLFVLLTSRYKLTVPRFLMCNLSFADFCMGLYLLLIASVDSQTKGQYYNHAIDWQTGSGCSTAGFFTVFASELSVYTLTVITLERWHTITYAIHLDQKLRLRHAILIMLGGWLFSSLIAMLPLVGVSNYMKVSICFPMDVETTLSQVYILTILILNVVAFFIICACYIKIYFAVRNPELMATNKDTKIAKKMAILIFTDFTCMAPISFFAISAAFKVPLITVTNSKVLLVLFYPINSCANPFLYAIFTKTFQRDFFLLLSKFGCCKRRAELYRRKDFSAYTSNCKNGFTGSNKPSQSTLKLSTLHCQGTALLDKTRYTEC

As to `COCCN(CCOC)CC(=O)Nc1cccc(-c2nc(-c3cccs3)nc3sc(C(=O)NC(C)(C)C)c(N)c23)c1` [Example 16, tert-Butyl 5-amino-2-(2-thienyl)-4-(3-((N,N-di-(2-methoxyethyl)-glycinyl)-amino)-phenyl)-thieno[2,3-d]pyrimidine-6-carboxamide], the EC50 amounted to 21.3 nM in assay [1] and 6810 nM in assay [2].

Regarding `CN(CCO)CC(=O)Nc1cccc(-c2nc(N(C)C)nc3sc(C(=O)NC(C)(C)C)c(N)c23)c1` [Example 18, tert-Butyl 5-amino-2-(N,N-dimethylamino)-4-(3-((N-methyl-N-(2-hydroxyethyl)-glycinyl)-amino)-phenyl)-thieno[2,3-d]pyrimidine-6-carboxamide], the values for the EC50 in assay [1] and in assay [2] were 14.5 nM and 1630 nM, respectively.

For `CCNc1nc(-c2cccc(NC(=O)CNCC(=O)OC)c2)c2c(N)c(C(=O)NC(C)(C)C)sc2n1` [Example 19, tert-Butyl 5-amino-2-ethylamino-4-(3-((N-(methoxycarbonylmethyl)-glycinyl)-amino)-phenyl)-thieno[2,3-d]pyrimidine-6-carboxamide], the EC50 in assay [1] is 22.9 nM; in assay [2], 2300 nM.

Turning to `CCN(CCOC)CC(=O)Nc1cccc(-c2nc(NC(C)C)nc3sc(C(=O)NC(C)(C)C)c(N)c23)c1` [Example 20, tert-Butyl 5-amino-2-isopropylamino-4-(3-((N-ethyl-N-(2-methoxyethyl)-glycinyl)-amino)-phenyl)-thieno[2,3-d]pyrimidine-6-carboxamide], the results for the EC50 in assay [1] and in assay [2] were 42.4 nM and 2950 nM, respectively.

`C=CCNc1nc(-c2cccc(NC(=O)CNCC(=O)OC)c2)c2c(N)c(C(=O)NC(C)(C)C)sc2n1` [Example 21, tert-Butyl 5-amino-2-allylamino-4-(3-((N-(methoxycarbonylmethyl)-glycinyl)-amino)-phenyl)-thieno[2,3-d]pyrimidine-6-carboxamide]: the results for the EC50 in assay [1] and in assay [2] were 57 nM and 560 nM, respectively.

For `CCN(CCOC)CC(=O)Nc1cccc(-c2nc(OC)nc3sc(C(=O)NC(C)(C)C)c(N)c23)c1` [Example 22, tert-Butyl 5-amino-2-methoxy-4-(3-((N-ethyl-N-(2-methoxyethyl)-glycinyl)-amino)-phenyl)-thieno[2,3-d]pyrimidine-6-carboxamide], the concentration for a half-maximal effect (EC50) in assay [1] was 11.6 nM; in assay [2], 953 nM.

With `C=CCOc1nc(-c2cccc(NC(=O)CN(CC)CCOC)c2)c2c(N)c(C(=O)NC(C)(C)C)sc2n1` [Example 23, tert-Butyl 5-amino-2-allyloxy-4-(3-((N-ethyl-N-(2-methoxyethyl)-glycinyl)-amino)-phenyl)-thieno[2,3-d]pyrimidine-6-carboxamide], the EC50 is 36.8 nM in assay [1] and 1740 nM in assay [2].

Consider `CCN(CCOC)CC(=O)Nc1cccc(-c2nc(OC(C)C)nc3sc(C(=O)NC(C)(C)C)c(N)c23)c1` [Example 24, tert-Butyl 5-amino-2-isopropoxy-4-(3-((N-ethyl-N-(2-methoxyethyl)-glycinyl)-amino)-phenyl)-thieno[2,3-d]pyrimidine-6-carboxamide], for which the EC50 in assay [1] worked out at 78.2 nM; in assay [2], 2510 nM.

In the case of `CC(C)(C)NC(=O)c1sc2nc(-c3ccncc3)nc(-c3cccc(NC(=O)CNC(C)(C)CO)c3)c2c1N` [Example 25, tert-Butyl 5-amino-2-(4-pyridyl)-4-(3-((N-(1-hydroxy-2-methyl-prop-2-yl) -glycinyl)-amino)-phenyl)-thieno[2,3-d]pyrimidine-6-carboxamide], the EC50 is 34.7 nM in assay [1] and 400 nM in assay [2].

Regarding `COCCN(CCOC)CC(=O)Nc1cccc(-c2nc(-c3ccncc3)nc3sc(C(=O)NC(C)(C)C)c(N)c23)c1` [Example 26, tert-Butyl 5-amino-2-(4-pyridyl)-4-(3-((N,N-bis-(2-methoxyethyl)-glycinyl)-amino)-phenyl)-thieno[2,3-d]pyrimidine-6-carboxamide], the EC50 in assay [1] came to 38.2 nM; in assay [2] it was 1230 nM.
